How the values were obtained:
[1] = target: Gamma-aminobutyric acid receptor subunit alpha-6 (Rattus norvegicus, UniProt P30191)
[2] = target: Gamma-aminobutyric acid receptor subunit alpha-4 (Rattus norvegicus, UniProt P28471)
Sequence of Gamma-aminobutyric acid receptor subunit alpha-4 (P28471 whole entry): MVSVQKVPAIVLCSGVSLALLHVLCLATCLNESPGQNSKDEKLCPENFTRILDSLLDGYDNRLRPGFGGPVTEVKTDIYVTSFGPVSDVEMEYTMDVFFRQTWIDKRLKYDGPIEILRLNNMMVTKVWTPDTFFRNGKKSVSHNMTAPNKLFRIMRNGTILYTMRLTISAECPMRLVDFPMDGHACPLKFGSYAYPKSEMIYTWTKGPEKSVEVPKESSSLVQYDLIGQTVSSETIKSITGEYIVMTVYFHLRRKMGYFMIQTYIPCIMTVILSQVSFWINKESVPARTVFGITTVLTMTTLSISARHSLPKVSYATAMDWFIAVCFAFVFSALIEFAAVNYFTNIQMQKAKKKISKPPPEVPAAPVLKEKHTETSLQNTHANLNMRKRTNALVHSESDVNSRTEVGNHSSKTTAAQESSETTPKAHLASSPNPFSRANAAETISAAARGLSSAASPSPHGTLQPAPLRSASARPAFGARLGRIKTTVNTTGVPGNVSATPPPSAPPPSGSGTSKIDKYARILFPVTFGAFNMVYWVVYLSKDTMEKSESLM

Sequence of Gamma-aminobutyric acid receptor subunit alpha-6 (P30191 whole entry): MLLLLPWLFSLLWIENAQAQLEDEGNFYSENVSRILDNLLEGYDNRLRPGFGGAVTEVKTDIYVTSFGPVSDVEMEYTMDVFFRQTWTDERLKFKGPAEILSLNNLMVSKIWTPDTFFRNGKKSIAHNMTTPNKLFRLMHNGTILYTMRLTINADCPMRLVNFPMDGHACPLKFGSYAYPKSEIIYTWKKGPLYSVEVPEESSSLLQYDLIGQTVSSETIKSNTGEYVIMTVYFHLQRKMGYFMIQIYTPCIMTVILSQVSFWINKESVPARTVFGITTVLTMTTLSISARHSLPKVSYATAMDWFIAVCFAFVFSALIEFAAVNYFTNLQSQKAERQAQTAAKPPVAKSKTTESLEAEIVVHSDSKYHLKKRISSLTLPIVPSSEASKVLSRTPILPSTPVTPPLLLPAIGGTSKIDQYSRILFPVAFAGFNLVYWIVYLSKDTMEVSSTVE

Compound | Ki [1] [nM] | Ki [2] [nM]
CCOC(=O)c1cc2c(cn1)[nH]c1ccccc12 | 2620 | –
CCOC(=O)c1ncc2[nH]c3cccc(OCc4ccccc4)c3c2c1COC [NSC_123700] | 1200 | 573
COc1ccc(-n2[nH]c3c(cnc4cc(OC)ccc43)c2=O)cc1 | 23 | 11.6
O=c1c2cnc3ccccc3c2[nH]n1-c1ccccc1 | 34.3 | 8
COc1ccc2ncc3c(=O)n(-c4ccccc4)[nH]c3c2c1 | 74.5 | 22.5
COC(=O)c1cc2c(cn1)[nH]c1ccccc12 | 2020 | 436
CN1Cc2c(C(=O)OC(C)(C)C)ncn2-c2ccc(Cl)cc2C1=O | 8.2 | 9.5
CN1Cc2c(C(=O)OC(C)(C)C)ncn2-c2ccc(OCc3ccccc3)cc2C1=O [DM-236] | 1590 | 188
CCOC(=O)c1ncn2c1CN(C)C(=O)c1cc(N=[N+]=[N-])ccc1-2 [RO-154513] | 5.3 | –
CCOC(=O)c1ncc2[nH]c3ccc(OCc4ccccc4)cc3c2c1COC [NSC_121926] | > 10000 | > 10000
CC(C)(C)OC(=O)c1cc2c(cn1)[nH]c1ccccc12 | 4750 | 897
CN1Cc2c(C(=O)OC(C)(C)C)ncn2-c2ccsc2C1=O [Ro-19-4603] | 3.6 | 6
O=c1c2cnc3ccccc3c2[nH]n1-c1ccc(Cl)cc1 | 500 | 214
CN1Cc2c(C(=O)OC(C)(C)C)ncn2-c2ccc(N=[N+]=[N-])cc2C1=O | 5.3 | 5.2
COc1ccc(-n2[nH]c3c(cnc4ccccc43)c2=O)cc1 [2-(4-Methoxy-phenyl)-2,5-dihydro-pyrazolo[4,3-c]quinolin-3-one (CGS 9895)] | 38.4 | 6.8
CCc1c(C(=O)OC)ncc2[nH]c3cc(OC)c(OC)cc3c12 [NSC_104999] | 121 | 38.5
CCc1ccc2c(c1)C(=O)N(C)Cc1c(C(=O)OC(C)(C)C)ncn1-2 [DM 286] | 13.5 | 10
CCOC(=O)c1ncn2c1CN(C)C(=O)c1cc(F)ccc1-2 [ethyl 12-fluoro-8-methyl-9-oxo-2,4,8-triazatricyclo[8.4.0.0^{2,6}]tetradeca-1(14),3,5,10,12-pentaene-5-carboxylate] | – | 118
